Experimental data from patent US4579940A, “14-de(hydroxymethyl)-mycaminosyltylonolide derivatives” (Toyo Jozo Kabushiki Kaisha, priority 1983, dated 1986).
≈ marks a conversion by molar mass, not a printed value. Read-outs that look alike come from different tables or passages of the source.

Tests used:
Format in all cases: cell-based
Staph. aureus MS353 = assay: minimum inhibitory concentration (MIC), Staph. aureus MS353; conditions: Staphylococcus aureus
Staph. aureus ATCC6538P = assay: minimum inhibitory concentration (MIC), Staph. aureus ATCC6538P; conditions: Staphylococcus aureus
[1] = tested on: Kleb. pneumoniae ATCC10031; assay: minimum inhibitory concentration (MIC), Kleb. pneumoniae ATCC10031; conditions: Klebsiella pneumoniae
Strept. pyogenes 1022 = assay: minimum inhibitory concentration (MIC), Strept. pyogenes 1022*; conditions: Streptococcus pyogenes, macrolide-antibiotics resistant
Excerpt: (§1) In Table 1, the abbreviations have the following meanings:
(§2) The test organisms were macrolide-antibiotics resistant A-group stains (clinical isolates of strains resistant to erythromycin, olenadomycin and 16-membered macrolide antibiotics).

[2] = tested on: Staph epidermidis ap-al-l; assay: minimum inhibitory concentration (MIC), Staph epidermidis
E. coli NIHJ-JC2 = assay: minimum inhibitory concentration (MIC), E. coli NIHJ-JC2; conditions: Escherichia coli, NIHJJC2
Strept. pyogenes N.Y.5 = assay: minimum inhibitory concentration (MIC), Strept. pyogenes N.Y.5; conditions: Streptococcus pyogenes
Excerpt: In Table 1, the abbreviations have the following meanings: […]

Strept. agalactiae 1020 = assay: minimum inhibitory concentration (MIC), Strept. agalactiae 1020; conditions: Streptococcus agalactiae
Proteus vulgaris OX19 = assay: minimum inhibitory concentration (MIC), Proteus vulgaris OX19
Serratia marcescens = assay: minimum inhibitory concentration (MIC), Serratia marcescens
Strept. faecalis 1501 = assay: minimum inhibitory concentration (MIC), Strept. faecalis 1501; conditions: Enterococcus faecalis
Staph. aureus MS353C36 = assay: minimum inhibitory concentration (MIC), Staph. aureus MS353C36*; conditions: Staphylococcus aureus, macrolide-antibiotics resistant
Excerpt: as §1, §2

[3] = Staph epidermidis ap-al-l, read-out: MIC

Row | Structure (SMILES) | MIC (Staph. aureus MS353) [µg/mL] | MIC (Staph. aureus ATCC6538P) [µg/mL] | MIC [1] [µg/mL] | MIC (Strept. pyogenes 1022) [µg/mL] | MIC [2, 3] [µg/mL] | MIC (E. coli NIHJ-JC2) [µg/mL] | MIC (Strept. pyogenes N.Y.5) [µg/mL] | MIC (Strept. agalactiae 1020) [µg/mL] | MIC (Proteus vulgaris OX19) [µg/mL] | MIC (Serratia marcescens) [µg/mL] | MIC (Strept. faecalis 1501) [µg/mL] | MIC (Staph. aureus MS353C36) [µg/mL] | MIC [2] [µg/mL]
1 | CCC1OC(=O)CC(O)C(C)C(OC2OC(C)C(OC(C)=O)C(N(C)C)C2OC(C)=O)C(CC(OC)OC)CC(C)C(=O)C=CC(C)=CC1CO (stereo not drawn) [A, 2',4'-di-O-acetyl-O-mycaminosyltylonolide dimethylacetal] | 0.2 (≈ 0.275 µM) | 0.2 (≈ 0.275 µM) | 1.6 (≈ 2.2 µM) | > 100 | 0.1 (≈ 0.137 µM) | 25 (≈ 34.3 µM) | ≤ 0.05 | ≤ 0.05 | 6.3 (≈ 8.66 µM) | 12.5 (≈ 17.2 µM) | 0.2 (≈ 0.275 µM) | – | –
2 | CCC1CC=C(C)C=CC(=O)C(C)CC(CC=O)C(OC2OC(C)C(O)C(N(C)C)C2O)C(C)C(O)CC(=O)O1 (stereo not drawn) [C, 14-de(hydroxymethyl)-O-mycaminosyltylonolide] | ≤ 0.05 | ≤ 0.05 | – | > 100 | ≤ 0.05 | – | ≤ 0.05 | ≤ 0.05 | – | – | 0.1 (≈ 0.176 µM) | ≤ 0.05 | –
3 | CCC1OC(=O)CC(O)C(C)C(OC2OC(C)CC(N(C)C)C2OC(C)=O)C(CC=O)CC(C)C(=O)C=CC(C)=CC1CO (stereo not drawn) [D, 2'-O-acetyl-4'-deoxy-O-mycaminosyltylonolide] | 0.2 (≈ 0.321 µM) | 0.2 (≈ 0.321 µM) | – | > 100 | ≤ 0.05 | – | ≤ 0.05 | ≤ 0.05 | – | – | 0.2 (≈ 0.321 µM) | 0.2 (≈ 0.321 µM) | –
4 | CCC1OC(=O)CC(O)C(C)C(OC2OC(C)CC(N(C)C)C2OC(C)=O)C(CC(OC)OC)CC(C)C(=O)C=CC(C)=CC1CO (stereo not drawn) [E, 2'-O-acetyl-4'-deoxy-O-mycaminosyltylonolide dimethylacetal] | 0.1 (≈ 0.149 µM) | 0.1 (≈ 0.149 µM) | – | > 100 | ≤ 0.05 | – | ≤ 0.05 | ≤ 0.05 | – | – | ≤ 0.05 | 0.1 (≈ 0.149 µM) | –
5 | CC[C@H]1OC(=O)[C@H](C)[C@@H](O[C@H]2C[C@@](C)(OC)[C@@H](O)[C@H](C)O2)[C@H](C)[C@@H](O[C@@H]2O[C@H](C)C[C@H](N(C)C)[C@H]2O)[C@](C)(O)C[C@@H](C)C(=O)[C@H](C)[C@@H](O)[C@]1(C)O [EM, erythromycin, reference compound] | 0.2 (≈ 0.273 µM) | 0.2 (≈ 0.273 µM) | – | > 100 | – | – | ≤ 0.05 | ≤ 0.05 | – | – | – | > 100 | 0.1 (≈ 0.136 µM)
6 | CCC1CC=C(C)C=CC(=O)C(C)CC(CC=O)C(OC2OC(C)CC(N(C)C)C2O)C(C)C(O)CC(=O)O1 (stereo not drawn) [F, 14-de(hydroxymethyl)-4'-deoxy-O-mycaminosyltylonolide] | 0.1 (≈ 0.181 µM) | 0.1 (≈ 0.181 µM) | – | > 100 | ≤ 0.05 | – | ≤ 0.05 | ≤ 0.05 | – | – | 0.2 (≈ 0.363 µM) | 0.2 (≈ 0.363 µM) | –
7 | CCC1OC(=O)CC(O)C(C)C(OC2OC(C)C(O)C(N(C)C)C2O)C(CC=O)CC(C)C(=O)C=CC(C)=CC1C(=O)OC(C)C (stereo not drawn) [G, 14-isopropyloxycarbonyl-14-de(hydroxymethyl)-O-mycaminosyltylonolide] | 0.4 (≈ 0.612 µM) | 0.4 (≈ 0.612 µM) | – | > 100 | 0.2 (≈ 0.306 µM) | – | ≤ 0.05 | ≤ 0.05 | – | – | 0.2 (≈ 0.306 µM) | 0.8 (≈ 1.22 µM) | –
8 | CCOC(=O)C1C=C(C)C=CC(=O)C(C)CC(CC=O)C(OC2OC(C)C(O)C(N(C)C)C2O)C(C)C(O)CC(=O)OC1CC (stereo not drawn) [H, 14-ethyloxycarbonyl-14-de(hydroxymethyl)-O-mycaminosyltylonolide] | 0.2 (≈ 0.313 µM) | 0.2 (≈ 0.313 µM) | – | > 100 | 0.1 (≈ 0.156 µM) | – | ≤ 0.05 | ≤ 0.05 | – | – | ≤ 0.05 | 0.4 (≈ 0.625 µM) | –
9 | CC[C@H]1OC(=O)C[C@@H](O)[C@H](C)[C@@H](O[C@@H]2O[C@H](C)[C@@H](O[C@H]3C[C@@](C)(O)[C@@H](O)[C@H](C)O3)[C@H](N(C)C)[C@H]2O)[C@@H](CC=O)C[C@@H](C)C(=O)/C=C/C(C)=C/[C@@H]1CO[C@@H]1O[C@H](C)[C@@H](O)[C@@H](OC)[C@H]1OC [TS, tylosin, reference compound] | – | – | – | > 100 | – | > 100 | – | 0.4 (≈ 0.437 µM) | – | – | 1.6 (≈ 1.75 µM) | > 100 | 0.4 (≈ 0.437 µM)
